Literature values, collected in US20060136139A1, “Rapid computational identification of targets” (priority 2004, published 2006).

Key:
PP2A = settings: experimental value beside the computed energy
PP2B = settings: experimental value beside the computed energy
PP1 = settings: experimental value beside the computed energy
PP2C = settings: experimental value beside the computed energy
[1] = at concentrations used in experimental inhibition studies

aggregation of kinase inhibitor [1]	Structure (SMILES)	IC50 (PP2A)	IC50 (PP2B)	IC50 (PP1)	IC50 (PP2C)
	C=C1[C@@H](O)[C@@H]2O[C@]3(CC[C@H](/C=C/[C@@H](C)[C@@H]4CC(C)=C[C@@]5(O[C@H](C[C@@](C)(O)C(=O)O)CC[C@H]5O)O4)O3)CC[C@H]2O[C@@H]1[C@@H](O)C[C@H](C)[C@H]1O[C@@]2(CCCCO2)CC[C@H]1C [okadaic acid]	0.51 nM	5000 nM	42 nM	> 10000 nM
exhibit this behavior	O=c1c(O)c(-c2ccc(O)c(O)c2)oc2cc(O)cc(O)c12 [quercetin]				
